≈ marks a conversion by molar mass, not a printed value. Where “and” joins values, the source holds several entries; their conditions need not be identical. Identical values can stand only once.
Assays:
Experiment in all cases: ≥ marks a high value that may be exact or a test limit, other limits are often not marked, values filed in µg/mL are converted to µM
[1] = system: Legionella pneumophila Lens
[2] = system: Klebsiella pneumoniae ATCC 13883
Bacillus subtilis = system: Bacillus subtilis
[3] = system: Enterococcus faecalis ATCC 29212
Escherichia coli = system: Escherichia coli
[4] = system: Salmonella enterica subsp. enterica serovar Typhimurium ATCC 14028
[5] = system: Staphylococcus aureus ATCC 25923
[6] = system: Pseudomonas aeruginosa ATCC 27853
[7] = system: Streptococcus pyogenes ATCC 19615
[8] = system: Escherichia coli ATCC 25922
[9] = system: Pseudomonas aeruginosa ATCC 15422
[10] = system: Bacillus thuringiensis ATCC 10792
[11] = system: Staphylococcus aureus CCT 2580
[12] = system: Bacillus cereus ATCC 11778
[13] = system: Escherichia coli ATCC 11775
[14] = system: Enterococcus hirae ATCC 10541
[15] = system: Enterococcus faecium CCT 5079
[16] = system: Streptococcus mutans AU159
[17] = system: Staphylococcus aureus CCT 6538
[18] = system: Streptococcus pneumoniae ATCC 11733
[19] = system: Micrococcus luteus ATCC 4698
[20] = system: Salmonella enterica subsp. enterica serovar Choleraesuis ATCC 10708
[21] = system: Escherichia coli CCT 1457
[22] = system: Pseudomonas aeruginosa ATCC 13388
[23] = system: Staphylococcus epidermidis ATCC 12228
[24] = system: Candida albicans ATCC 90028
[25] = system: Salmonella enterica subsp. enterica serovar Typhimurium C77-31
Escherichia coli K99 = system: Escherichia coli K99
[26] = system: Lacticaseibacillus rhamnosus 1.0936
[27] = system: Lactiplantibacillus plantarum 8014
[28] = system: Lacticaseibacillus rhamnosus 1.0911
Escherichia coli K88 = system: Escherichia coli K88
[29] = system: Staphylococcus aureus ATCC 43300
[30] = system: Salmonella enterica subsp. enterica serovar Pullorum C79-13
Escherichia coli UB1005 = system: Escherichia coli UB1005
[31] = system: Lacticaseibacillus rhamnosus 7469
[32] = system: Lacticaseibacillus rhamnosus 1.0385

| SMILES | MIC [1] [µM] | MIC [4] [µM] | MIC [5] [µM] | MIC [6] [µM] | MIC [8] | MIC [9] [µM] | MIC [10] [µM] | MIC [11] [µM] | MIC [12] [µM] | MIC [13] [µM] | MIC [14] [µM] | MIC [15] [µM] | MIC [16] [µM] | MIC [17] [µM] | MIC [18] [µM] | MIC [19] [µM] | MIC [21] [µM] | MIC [22] [µM] | MIC [23] [µM] | MIC [20] [µM] | other results |
| --- | --- | --- | --- | --- | --- | --- | --- | --- | --- | --- | --- | --- | --- | --- | --- | --- | --- | --- | --- | --- | --- |
| CC(C)C[C@H](NC(=O)[C@H](Cc1c[nH]c2ccccc12)NC(=O)[C@H](CCC(N)=O)NC(=O)[C@@H](NC(=O)[C@H](CCC(N)=O)NC(=O)[C@@H]1CCCN1C(=O)[C@H](CCC(=O)O)NC(=O)[C@H](CCCN=C(N)N)NC(=O)[C@@H](N)CCC(N)=O)C(C)C)C(=O)N[C@@H](CCC(=O)O)C(=O)N[C@@H](CCC(N)=O)C(=O)N[C@@H](CCC(N)=O)C(=O)N[C@H](C(=O)N[C@@H](C)C(=O)N[C@@H](CCCCN)C(=O)N[C@@H](CCCN=C(N)N)C(=O)N[C@@H](CCCN=C(N)N)C(=O)N[C@H](C(=O)N[C@@H](CCCCN)C(=O)N[C@@H](CCCN=C(N)N)C(=O)O)[C@@H](C)O)C(C)C [QREPQVQWLEQQVAKRRTKR] | – | > 100 | > 100 | > 100 | – | – | – | – | – | – | – | – | – | – | – | – | – | – | – | – | MIC [2]: ≥ 100 µM; MIC (Bacillus subtilis): ≥ 100 µM; MIC [3]: > 100 µM; MIC (Escherichia coli): > 100 µM; MIC [7]: ≥ 100 µM |
| CC[C@H](C)[C@H](N)C(=O)N[C@@H](CC(N)=O)C(=O)N[C@@H](Cc1c[nH]c2ccccc12)C(=O)N[C@@H](CC(C)C)C(=O)N[C@@H](C)C(=O)N[C@H](C(=O)N[C@@H](C)C(=O)N[C@@H](C)C(=O)N[C@@H](C)C(=O)N[C@H](C(=O)N[C@@H](C)C(=O)NCC(=O)N[C@@H](CCSC)C(=O)N[C@@H](CC(C)C)C(N)=O)C(C)C)[C@@H](C)CC [INWLAIAAAVAGML] | – | > 354 | > 354 | – | > 354 µM | ≥ 354 | ≥ 354 | ≥ 354 | ≥ 354 | ≥ 354 | ≥ 354 | ≥ 354 | ≥ 354 | ≥ 354 | ≥ 354 | ≥ 354 | ≥ 354 | ≥ 354 | > 354 | ≥ 354 | – |
| CC[C@H](C)[C@H](N)C(=O)N[C@@H](CC(N)=O)C(=O)N[C@@H](Cc1c[nH]c2ccccc12)C(=O)N[C@@H](CCCCN)C(=O)N[C@@H](CCCCN)C(=O)N[C@H](C(=O)N[C@@H](C)C(=O)N[C@@H](CCCCN)C(=O)N[C@@H](CCCCN)C(=O)N[C@H](C(=O)N[C@@H](C)C(=O)NCC(=O)N[C@@H](CCSC)C(=O)N[C@@H](CC(C)C)C(N)=O)C(C)C)[C@@H](C)CC [INWKKIAKKVAGML] | – | 1.25 (≈ 2 µg/mL) | 1.25 (≈ 2 µg/mL) | – | 2.5 µM (≈ 4 µg/mL) | 5 (≈ 8 µg/mL) | 19.4 (≈ 31 µg/mL) | 1.25 (≈ 2 µg/mL) | 10 (≈ 16 µg/mL) | 2.5 (≈ 4 µg/mL) | 5 (≈ 8 µg/mL) | 0.625 (≈ 0.999 µg/mL) | 1.25 (≈ 2 µg/mL) | 0.625 (≈ 0.999 µg/mL) | 0.625 (≈ 0.999 µg/mL) | 0.625 (≈ 0.999 µg/mL) | 0.625 (≈ 0.999 µg/mL) | 10 (≈ 16 µg/mL) | 0.625 (≈ 0.999 µg/mL) | 5 (≈ 8 µg/mL) | MIC [24]: 9.76 µM (≈ 15.6 µg/mL) |
| NC(=O)[C@H](CCCN=C(N)N)NC(=O)[C@H](CCCN=C(N)N)NC(=O)[C@H](Cc1c[nH]c2ccccc12)NC(=O)[C@H](Cc1c[nH]c2ccccc12)NC(=O)[C@H](Cc1c[nH]c2ccccc12)NC(=O)[C@@H](N)CCCN=C(N)N [RWWWRR] | – | > 64 | – | > 64 | 23.9 µM and 32 µM | – | – | – | – | – | – | – | – | – | – | – | – | – | – | – | MIC [25]: ≥ 64 µM; MIC (Escherichia coli K99): ≥ 32 µM; MIC [26]: ≥ 64 µM; MIC [27]: ≥ 64 µM; MIC [28]: ≥ 64 µM; MIC (Escherichia coli K88): ≥ 32 µM; MIC [29]: 8 µM (≈ 8.35 µg/mL); MIC [30]: ≥ 64 µM; MIC (Escherichia coli UB1005): ≥ 32 µM; MIC [31]: ≥ 64 µM; MIC [32]: ≥ 64 µM |

Continued, in another order:

| MIC [1] [µM] | MIC [4] [µM] | MIC [5] [µM] | MIC [6] [µM] | MIC [8] | MIC [9] [µM] | MIC [10] [µM] | MIC [11] [µM] | MIC [12] [µM] | MIC [13] [µM] | MIC [14] [µM] | MIC [15] [µM] | MIC [16] [µM] | MIC [17] [µM] | MIC [18] [µM] | MIC [19] [µM] | MIC [21] [µM] | MIC [22] [µM] | MIC [23] [µM] | SMILES | MIC [20] [µM] | other results |
| --- | --- | --- | --- | --- | --- | --- | --- | --- | --- | --- | --- | --- | --- | --- | --- | --- | --- | --- | --- | --- | --- |
| 2.08 (≈ 5.23 µg/mL) | – | – | – | – | – | – | – | – | – | – | – | – | – | – | – | – | – | – | CC[C@H](C)[C@H](NC(=O)[C@H](CC(C)C)NC(=O)[C@H](CC(=O)O)NC(=O)[C@@H](NC(=O)[C@@H](NC(=O)[C@H](Cc1ccccc1)NC(=O)[C@H](CCC(N)=O)NC(=O)[C@@H](N)CCSC)[C@@H](C)CC)[C@@H](C)O)C(=O)N[C@@H](CCCCN)C(=O)N[C@@H](CCCCN)C(=O)N[C@@H](C)C(=O)N[C@H](C(=O)N[C@@H](CC(=O)O)C(=O)N[C@@H](Cc1ccccc1)C(=O)N[C@@H](Cc1ccccc1)C(=O)N[C@@H](CCCCN)C(=O)NCC(=O)N[C@@H](CC(C)C)C(=O)N[C@H](C(=O)NCC(=O)N[C@@H](CC(N)=O)C(=O)N[C@@H](CCCCN)C(=O)O)C(C)C)C(C)C [MQFITDLIKKAVDFFKGLVGNK] | – | – |
| 1.22 (≈ 3.26 µg/mL) | – | – | – | – | – | – | – | – | – | – | – | – | – | – | – | – | – | – | CC[C@H](C)[C@H](NC(=O)[C@H](Cc1ccccc1)NC(=O)CNC(=O)[C@H](CC(N)=O)NC(=O)[C@@H](N)CCSC)C(=O)N[C@@H](CC(C)C)C(=O)NCC(=O)N[C@@H](CCCCN)C(=O)N[C@@H](Cc1ccccc1)C(=O)N[C@@H](Cc1ccccc1)C(=O)N[C@@H](CC(=O)O)C(=O)N[C@H](C(=O)N[C@@H](C)C(=O)N[C@@H](CCCCN)C(=O)N[C@@H](CCCCN)C(=O)N[C@H](C(=O)N[C@@H](CC(C)C)C(=O)N[C@@H](CC(=O)O)C(=O)N[C@H](C(=O)N[C@H](C(=O)N[C@@H](Cc1ccccc1)C(=O)N[C@@H](CCC(N)=O)C(=O)N[C@@H](CCCCN)C(=O)O)[C@@H](C)CC)[C@@H](C)O)[C@@H](C)CC)C(C)C [MNGFILGKFFDVAKKILDTIFQK] | – | – |
